Source: patent EP1743640A1, “Use of substituted pyrazoline compounds for the preparation of paediatric medicaments” (LABORATORIOS DEL DR. ESTEVE, S.A., priority 2005, dated 2007)

Experiments:
[1] = biological target: T1, CB1-Receptor (Homo sapiens, UniProt P21554); assay: In-vitro determination of affinity to CB1 receptor (radioligand [3H]-CP55940); format: binding
T1 construct: purchased Receptor Biology, Inc
Experimental: (§1) I. In-vitro determination of affinity to CB1/CB2-Receptors
(§2) The in-vitro determination of the affinity of the substituted pyrazoline compounds to CB1/CB2-Rezeptors is carried out as described in the publication of Ruth A. Ross, Heather C. Brockie et al., "Agonist-inverse agonist characterization at CB1 and CB2 cannabinoid receptors of L-759633, L759656 and AM630", British Journal of Pharmacology, 126, 665-672, (1999), whereby the transfected human CB1 and CB2 receptors of Receptor Biology, Inc. are used. The radioligand used for both receptors is [^3H]-CP55940. The respective parts of the description is hereby incorporated by reference and forms part of the present disclosure.

[2] = system: cannabinoid receptors; assay: Mouse tetrad model, antagonistic effect against Win 55212-2; format: in vivo, Male NMRI mice; parameters: unit not given here; conditions: 5 mg/kg i.v. prior to Win 55212-2 in a dose of 1,25mg/kg i.v.
From the text: (§3) Substances with affinity for cannabinoid receptors are known to produce a wide range of pharmacological effects. It is also known that intravenous administration of a substance with affinity for cannabinoid receptors in mice produces analgesia , hypothermia, sedation and catalepsy. Individually, none of these effects can be considered as proof that a tested substance has affinity for cannabinoid-receptors, since all of these effects are common for various classes of centrally active agents. However, substances, which show all of these effects, i.e. substances that are active in this so-called tetrad model are considered to have affinity for the cannabinoid receptors. It has further been shown that cannabinoid receptor antagonists are higly effective in blocking the effects of a cannabinoid agonist in the mouse tetrad model.
(§4) The tetrad model is described, for example, in the publication of A. C. Howlett et al, Intemational Union of Pharmacology XXVII. Classification of Cannabinoid Receptors, Pharmacol Rev 54, 161-202 , 2002 and David R. Compton et al., "In-vivo Characterization of a Specific Cannabinoid Receptor Antagonist (SR141716A) :Inhibition of Tetrahydrocannbinol- induced Responses and Apparent Agonist Activity", J. Pharmacol. Exp. Ther. 277 , 2, 586-594, 1996. The corresponding parts of the description are hereby incorporated by reference.
(§5) Male NMRI mice with a weight of 20-30 g (Harlan, Barcelona, Spain) are used in all of the following experiments.
(§6) Before testing in the behavioral procedures given below, mice are acclimatized to the experimental setting. Pre-Treatment control values are determined for analgesia hot plate latency (in seconds), rectal temperature, sedation and catalepsy.
(§7) In order to determine the agonistic activty of the substance to be tested, the mice are injected intravenously with the substance to be tested or the vehicle alone. 15 minutes after injection, latency in hot plate analgesia is measured. Rectal temperature, sedation and catalepsy are measured 20 minutes after injection.
In order to determine the antagonistic activity the identical procedure is used as for the determination of the agonistic effects, but with the difference that the substance to be evaluated for its antagonistic activity is injectected 5 minutes before the intravenous injection of 1.25 mg/kg Win-55,212 a known cannabinoid-receptor agonist.
(§8) The hot plate analgesia is determined according to the method described in Woolfe D. et al. "The evaluation of analgesic action of pethidine hydrochloride (Demerol)", J. Pharmacol. Exp. Ther. 80, 300-307,1944. The respective description is hereby incorporated by reference and forms part of the present disclosure.
(§9) The mice are placed on a hot plate (Harvard Analgesimeter) at 55 ± 0.5 °C until they show a painful sensation by licking their paws or jumping and the time for these sensations to occur is recorded. This reading is considered the basal value (B). The maximum time limit the mice are allowed to remain on the hot plate in absence of any painful response is 40 seconds in order to prevent skin damage. This period is called the cut-off time (PC).
(§10) Fifteen minuts after the administration of the substance to be tested, the mice are again placed on the hot plate and the afore described procedure is repeated. This period is called the post-treatment reading (PT).
(§11) The degree of analgesia is calculated from the formula : %MPE of Analgesia = (PT-B)/(PC-B) × 100 [formula]
(§12) Sedation and ataxia is determined according to the method described in Desmet L. K. C. et al. "Anticonvulsive properties of Cinarizine and Flunarizine in Rats and Mice", Arzneim. -Forsch. (Frug Res) 25, 9, 1975. The respective description is hereby incorporated by reference and forms part of the present disclosure.
The chosen scoring system is • 0: no ataxia; • 1: doubful; • 2: obvious calmness and quiet; • 3 pronounced ataxia; prior to as well as after treatment. […]

[3] = system: cannabinoid receptors; assay: Mouse tetrad model, agonistic effect; format: in vivo, Male NMRI mice; parameters: key to Agonistic effect D: Sedation: % sedation = mean score (0-3 scale)/3 × 100; Agonistic effect A: Hot-Plate test / Agonistic effect B: Hypothermia / Agonistic effect C: Catalepsy: unit not given here; conditions: 5 mg/kg i.v.
From the text: as §3, §4, §5, §6, §7, §8, §9, §10, §11, §12
The chosen scoring system is • 0: no ataxia; • 1: doubful; • 2: obvious calmness and quiet; • 3 pronounced ataxia; prior to as well as after treatment.
The percentage of sedation is determined according to the formula: %of sedation = arithmetic mean/3 × 100 [formula]
Hypothermia is determined according to the method described in David R. Compton et al. "In-vivo Characterization of a Specific Cannabinoid Receptor Antagonist (SR141716A) Inhibition of Tetrahydrocannbinol- induced Responses and Apparent Agonist Activity", J. Pharmacol Exp Ther. 277 , 2, 586-594, 1996. […]

[4] = biological target: T2, CB2-Receptor (Homo sapiens, UniProt P34972); assay: In-vitro determination of affinity to CB2 receptor (radioligand [3H]-CP55940); format: binding
T2 construct: purchased Receptor Biology, Inc
Experimental: as §1, §2

T2 sequence (P34972 whole entry): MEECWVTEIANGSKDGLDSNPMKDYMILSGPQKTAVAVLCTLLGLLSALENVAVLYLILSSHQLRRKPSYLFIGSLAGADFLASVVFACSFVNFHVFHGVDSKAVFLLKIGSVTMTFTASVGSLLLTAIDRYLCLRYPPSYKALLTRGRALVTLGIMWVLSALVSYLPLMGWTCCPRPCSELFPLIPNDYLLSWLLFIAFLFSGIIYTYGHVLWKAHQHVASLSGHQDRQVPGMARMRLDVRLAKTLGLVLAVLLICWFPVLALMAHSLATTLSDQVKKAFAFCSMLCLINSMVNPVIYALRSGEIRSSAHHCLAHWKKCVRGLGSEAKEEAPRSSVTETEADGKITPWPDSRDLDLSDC
T1 sequence (P21554 whole entry): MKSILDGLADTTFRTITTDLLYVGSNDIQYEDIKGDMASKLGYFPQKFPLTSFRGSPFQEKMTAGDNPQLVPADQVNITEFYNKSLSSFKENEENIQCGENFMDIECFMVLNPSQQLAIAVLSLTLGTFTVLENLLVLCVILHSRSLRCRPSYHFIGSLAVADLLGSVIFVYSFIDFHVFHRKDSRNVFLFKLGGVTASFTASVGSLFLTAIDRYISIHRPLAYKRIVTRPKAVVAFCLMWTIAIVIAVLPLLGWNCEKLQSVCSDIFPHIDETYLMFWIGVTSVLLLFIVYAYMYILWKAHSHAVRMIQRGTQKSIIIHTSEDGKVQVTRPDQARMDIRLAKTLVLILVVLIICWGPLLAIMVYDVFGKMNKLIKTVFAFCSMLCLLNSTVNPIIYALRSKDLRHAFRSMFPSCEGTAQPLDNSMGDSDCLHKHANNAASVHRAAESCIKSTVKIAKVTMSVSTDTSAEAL

SMILES | Ki [1] | Antagonistic Effect A: Hot-Plate test [2] | Antagonistic Effect B: Hypothermia [2] | Antagonistic Effect C: Catalepsy [2] | Antagonistic Effect D: Sedation [2] | Agonistic effect A: Hot-Plate test [3] | Agonistic effect B: Hypothermia [3] | Agonistic effect C: Catalepsy [3] | Agonistic effect D: Sedation [3] | Ki [4]
O=C(NN1CCCCC1)C1=NN(c2ccc(Cl)cc2Cl)C(c2ccc(Cl)cc2)C1 (stereo not shown) [Example 1, N-piperidinyl-5-(4-chlorophenyl)-1-(2,4-dichlorophenyl)-4,5-dihydro-1H-pyrazole-3-carboxamide] | < 25 nM | 74 | 100 | 100 | 100 | 0 | 0 | 0 | 0 | > 1000 nM
O=C(C1=NN(c2ccc(Cl)cc2Cl)C(c2ccc(Cl)cc2)C1)N1CCCCC1 (stereo not shown) [Example 5, (5-(4-Chloro-phenyl)-1-(2,4-dichloro-phenyl)-4,5-dihydro-1 H-pyrazol-3-yl]-piperidin-1-yl-methanone] | – | 50 | 40 | 20 | 20 | 0 | 50 | 0 | 0 | ~1000 nM
